Series [1] deals with L1210 U.S.A. strain. As to the kind of experiment: antitumor activity on leukemia L1210 U.S.A., compounds of formula IA, I.P. Type of series: in vivo, mouse. How it is done:
On the day of the graft (by convention day 0=DO) an inoculum of 1×10^5 tumor cells in a volume of 0.2 ml is administered to each mouse by the intraperitoneal route (I.P.).
This inoculum is prepared by diluting ascites fluid taken from the peritoneum of a donor female mouse in NCTC 109 medium (Eurobio Laboratories Paris, France), counting of the cells in a MALASSEZ cell under a microscope and adjustment of the concentration to 5×10^5cells per ml.
After the tumor graft has been made, the mice are distributed at random in cages of 5 animals. Subsequently, these cages containing 5 mice are themselves distributed at random into a control group (control) and groups treated with the products of the invention.
(§1) The doses of the products of the invention used in the different experiments are expressed in milligrams per kilogram of body weight.
(§2) The products to be injected were dissolved in isotonic sodium chloride solution.
Two protocols for treatment were used in the different experiments:
(§3) or 3 I.P. injections on D1, D5, D9.
(§4) In each experiment the animals of the control group received 1 or more injections, depending on the experimental protocol used, by the same route (I.P. or I.V.) of the same volume (0.2 ml/20 g) of the vehicle not containing the active principle (isotonic sodium chloride solution).
(§5) the number and percentage of the total of the mice surviving to D60,
(§6) the T/C×100 for treated groups.
(§7) T representing the mean survival time of the mice in the treated group
(§8) C representing the mean survival time of the mice in the control group (control).

Series [2] in a line: toxicological study, lethal doses (Table IA). Conditions: mouse, in vivo. An excerpt: The results relating to toxicology are brought together in Table IA below:
Series [3] relates to L1210 U.S.A. The experiment in a line: antitumor activity on leukemia L1210 U.S.A., products of examples 33-39, I.P. Type of series: in vivo, mouse. How it is done: The experiments were always carried out on female mice which were specific pathogen-free (S. P. F.),
either of the line DBA/2JIco
or of the line B6 D2 F1/JIco (first generation hybrids between the lines C57BL/6 and DBA/2).
On the day of the graft (by convention day 0=D0) an inoculum of 1×10^5 tumor cells in a volume of 0.2 ml is administered to each mouse by the intraperitoneal route (I.P.).
This inoculum is prepared by diluting ascites fluid taken from the peritoneum of a donor female mouse in NCTC 109 medium (Eurobio Laboratories, Paris, France), counting of the cells in a MALASSEZ cell under a microscope and adjustment of the concentration to 5×10^5cells […] by means of the same medium.
The tumor line is an American strain of the line L1210.
After the tumor graft, the mice are distributed at random in cages of 5 animals. Subsequently, these cages containing 5 mice are themselves distributed at random into a control group (control) and groups treated with the I.C. products.
as §1, §2
2 protocols for treatment were used in the different experiments:
either a single injection on D1, by the intraperitoneal (I.P.) or intravenous (I.V.) route,
as §3
In each experiment the animals of the control group received 1 or more injections, depending on the experimental protocol used, by the same route (I.P. or I.V.) of the same volume (0.2 ml/20 g) of the vehicle without the active principle (isotonic sodium chloride solution).
as §5
the T/C×100 for the treated groups.
T representing the mean survival time of the mice in the treated group,
C representing the mean survival time of the mice in the control group (controls).

Series [4] is described as follows: toxicological results, single I.P. dose, DL0 and DL50. Type of series: in vivo, mouse. The note with it: mice. An excerpt: DL0, DL50, single I.P. dose administered to the aforementioned strains of mice.
Series [5] deals with melanoma B16. The experiment in a line: antitumor activity on melanoma B16, compounds of formula IA, I.P. Type of series: in vivo, mouse. The note with it: B6 D2 F1, I.P. D1, D5, D9, 3×10 mg/kg. The method, then: The experiments were always carried out on SPF female mice B6 D2 F1/JIco (first generation hybrids between the lines C5BL/6 and DBA/2).
On the day of the graft (Day 0) an inoculum of 2×10^6 tumor cells in a volume of 0.5 ml is administered to each mouse by the intraperitoneal route (I.P.). This inoculum is prepared from a sub-cutaneous tumor excised from a donor female mouse. After excision the tumor is fragmented by means of a pair of scissors in the NCTC 109 medium. After filtration through sterile gauze in order to remove large cellular fragments, the homogeneous cell suspension obtained is counted by means of a MALASSEZ cell and diluted to the desired concentration (4×10^6 tumor cells per ml) by dilution with the NCTC 109 medium.
This was performed in the manner described previously for the leukemia L1210.
as §1, §2, §3, §4, §5, §6, §7, §8

Where [6] appears, read: B6 D2 F1, I.P. D1, D5, D9, 3×1.25 mg/kg.
[7] abbreviates: B6 D2 F1, I.P. D1, D5, D9, 3×5 mg/kg.
Setting [8] is: DBA2, I.P. D1, D5, D9, 3×2.5 mg/kg.
The mark [9] stands for this setting: DBA2, I.P. D1, D5, D9, 3×10 mg/kg.

As to `CO[C@@H]1O[C@H](COC(=O)c2ccccc2)C[C@H](NC(=O)N(CCCl)N=O)[C@H]1O` [CI. 1674, methyl 3-[3-(2-chloroethyl)-3 nitrosoureido] 6-benzoyl 3,4-dideoxy-β-D-xylo-hexopyranoside], the “Number of survivors at D60” value in series [1] (setting [6]) and in series [1] (setting [7]) was 0/10 each time. The T/C in series [1] (setting [6]) is reported as 111; in series [1] (setting [7]) it was 130. Further, the LD0 in series [2] is on record as at least 40 mg/kg.

With `CO[C@H]1O[C@@H](C)C[C@@H](NC(=O)N(CCCl)N=O)[C@@H]1O` [IC. 85-1627, methyl 3-[3-(2-chloroethyl) 3-nitrosoureido] 3,4,6-trideoxyβ-L-xylo-hexopyranoside], in series [3] (DBA2, I.P. D1, 1×20 mg/kg), the “Number of survivors on D60” value is recorded as 3/10. In series [3] (setting [8]), the “Number of survivors on D60” value was 0/10 and the T/C is 141. Besides, in series [3] (setting [9]), the “Number of survivors at D60” value is 6/10 and the T/C is given as over 600. In series [4], this compound showed a DL0 of at least 40 mg/kg.

`CO[C@H]1O[C@H](CO)[C@H](Cl)[C@H](NC(=O)N(CCCl)N=O)[C@H]1O` [CI. 1676, methyl 4-chloro 3-[3-(2-chloro-ethyl) 3-nitrosoureido] 3,4-dideoxy-α-D-galacto-hexopyranoside]: the “Number of survivors at D60” value in series [5] is given as 3/10; in series [1] (setting [6]) it was 0/10; in series [1] (setting [7]) it was 0/10. Also, the T/C came to 202 in series [5], 136 in series [1] (setting [6]) and 188 in series [1] (setting [7]). In series [2], the LD0 was at least 20 mg/kg.

With `CO[C@H]1O[C@H](CO)C[C@H](NC(=O)N(CCCl)N=O)[C@H]1O` [CI. 1677, methyl 3-[3-(2-chloroethyl) 3-nitroso-ureido] 3,4-dideoxy-α-D-xylo-hexopyranoside], the “Number of survivors at D60” value in series [5] was 7/10; in series [1] (setting [6]), 0/10; in series [1] (setting [7]), 6/10. The T/C in series [5] was 257; in series [1] (setting [6]), 157; in series [1] (setting [7]) it was over 600. For the same compound, the LD90 in series [2] is listed as at most 20 mg/kg.

In the case of `CO[C@H]1C[C@@H](NC(=O)N(CCCl)N=O)[C@H](O)[C@@H](C)O1` [IC. 85-1625, methyl 3-[3-(2-chloroethyl) 3-nitrosoureido] 2,3,6-trideoxyβ-L-arabino-hexopyranoside], in series [3] (setting [9]), the “Number of survivors at D60” value is recorded as 0/10 and the T/C was 190. Moreover, the DL0 in series [4] is recorded as at least 40 mg/kg.

The record behind these values is patent US4902791A, “Nitrosourea derivatives, process for their preparation and medicaments containing them” (Sanofi S.A., priority 1983, dated 1990).
